Test results reported in the NIST ThermoML archive (doi:10.1016/j.jct.2018.05.029).
Several values for one entry are separate records, joined by “and”; a condition that tells them apart may be missing. Identical values can stand only once. Numbers after ± are expanded uncertainties.

Cc1cc2ccccc2[nH]1 [2-methylindole]
molar entropy (10 K, Crystal, Vacuum adiabatic calorimetry): 0.7816 ± 0.025 J/K/mol | molar entropy (20 K, Crystal, Vacuum adiabatic calorimetry): 5.097 ± 0.058 J/K/mol | molar entropy (30 K, Crystal, Vacuum adiabatic calorimetry): 11.88 ± 0.075 J/K/mol | molar entropy (40 K, Crystal, Vacuum adiabatic calorimetry): 19.5 ± 0.1 J/K/mol | molar entropy (50 K, Crystal, Vacuum adiabatic calorimetry): 27.26 ± 0.13 J/K/mol | molar entropy (60 K, Crystal, Vacuum adiabatic calorimetry): 34.95 ± 0.16 J/K/mol | molar entropy (70 K, Crystal, Vacuum adiabatic calorimetry): 42.45 ± 0.18 J/K/mol | molar entropy (80 K, Crystal, Vacuum adiabatic calorimetry): 49.75 ± 0.21 J/K/mol | molar entropy (90 K, Crystal, Vacuum adiabatic calorimetry): 56.85 ± 0.32 J/K/mol | molar entropy (100 K, Crystal, Vacuum adiabatic calorimetry): 63.76 ± 0.34 J/K/mol | molar entropy (120 K, Crystal, Vacuum adiabatic calorimetry): 77.12 ± 0.37 J/K/mol | molar entropy (140 K, Crystal, Vacuum adiabatic calorimetry): 89.97 ± 0.41 J/K/mol | molar entropy (160 K, Crystal, Vacuum adiabatic calorimetry): 102.47 ± 0.44 J/K/mol | molar entropy (180 K, Crystal, Vacuum adiabatic calorimetry): 114.71 ± 0.48 J/K/mol | molar entropy (200 K, Crystal, Vacuum adiabatic calorimetry): 126.76 ± 0.52 J/K/mol | molar entropy (220 K, Crystal, Vacuum adiabatic calorimetry): 138.69 ± 0.55 J/K/mol | molar entropy (240 K, Crystal, Vacuum adiabatic calorimetry): 150.54 ± 0.58 J/K/mol | molar entropy (260 K, Crystal, Vacuum adiabatic calorimetry): 162.33 ± 0.62 J/K/mol | molar entropy (280 K, Crystal, Vacuum adiabatic calorimetry): 174.1 ± 0.66 J/K/mol | mass density (298.15 K, 101.33 kPa, Liquid, From volume and mass of a pressed pellet): 1070 ± 43 kg/m3 | molar entropy (298.15 K, Crystal, Vacuum adiabatic calorimetry): 184.78 ± 0.69 J/K/mol | molar entropy (298.15 K, Liquid, Vacuum adiabatic calorimetry): 224.56 ± 0.81 J/K/mol | molar entropy (300 K, Crystal, Vacuum adiabatic calorimetry): 185.87 ± 0.69 J/K/mol | molar entropy (300 K, Liquid, Vacuum adiabatic calorimetry): 225.95 ± 0.81 J/K/mol | molar entropy (320 K, Crystal, Vacuum adiabatic calorimetry): 197.68 ± 0.73 J/K/mol | molar entropy (320 K, Liquid, Vacuum adiabatic calorimetry): 240.78 ± 0.86 J/K/mol | molar entropy (331.97 K, Crystal, Vacuum adiabatic calorimetry): 204.77 ± 0.75 J/K/mol | molar entropy (331.97 K, Liquid, Vacuum adiabatic calorimetry): 249.48 ± 0.89 J/K/mol | vapor or sublimation pressure (339.98 K, Liquid, Inclined piston gauge): 0.022 ± 0.0008 kPa | vapor or sublimation pressure (339.99 K, Liquid, Inclined piston gauge): 0.022 ± 0.0008 kPa | molar entropy (340 K, Liquid, Vacuum adiabatic calorimetry): 255.25 ± 0.91 J/K/mol | mass density (342 K, 101.33 kPa, Liquid, Pycnometric method): 1020 ± 20 kg/m3 | vapor or sublimation pressure (349.98 K, Liquid, Inclined piston gauge): 0.0439 ± 0.0008 kPa | vapor or sublimation pressure (359.98 K, Liquid, Inclined piston gauge): 0.0849 ± 0.0009 kPa | molar entropy (360 K, Liquid, Vacuum adiabatic calorimetry): 269.41 ± 0.95 J/K/mol | vapor or sublimation pressure (369.98 K, Liquid, Inclined piston gauge): 0.1565 ± 0.0009 kPa and 0.1564 ± 0.0009 kPa | vapor or sublimation pressure (379.98 K, Liquid, Inclined piston gauge): 0.2769 ± 0.001 kPa | molar entropy (380 K, Liquid, Vacuum adiabatic calorimetry): 283.28 ± 0.99 J/K/mol | vapor or sublimation pressure (389.98 K, Liquid, Inclined piston gauge): 0.4731 ± 0.0012 kPa | vapor or sublimation pressure (399.97 K, Liquid, Inclined piston gauge): 0.7822 ± 0.0014 kPa | molar entropy (400 K, Liquid, Vacuum adiabatic calorimetry): 296.88 ± 1 J/K/mol | vapor or sublimation pressure (409.97 K, Liquid, Inclined piston gauge): 1.255 ± 0.0018 kPa | vapor or sublimation pressure (419.96 K, Liquid, Inclined piston gauge): 1.958 ± 0.0023 kPa | molar entropy (420 K, Liquid, Vacuum adiabatic calorimetry): 310.21 ± 1.1 J/K/mol | vapor or sublimation pressure (424.96 K, Liquid, Inclined piston gauge): 2.423 ± 0.0027 kPa | vapor or sublimation pressure (424.97 K, Liquid, Inclined piston gauge): 2.423 ± 0.0027 kPa | vapor or sublimation pressure (427.25 K, Liquid, Twin ebulliometer): 2.666 ± 0.0079 kPa | vapor or sublimation pressure (429.96 K, Liquid, Inclined piston gauge): 2.979 ± 0.0032 kPa | vapor or sublimation pressure (437.34 K, Liquid, Twin ebulliometer): 4 ± 0.0079 kPa | molar entropy (440 K, Liquid, Vacuum adiabatic calorimetry): 323.28 ± 1.1 J/K/mol | vapor or sublimation pressure (444.87 K, Liquid, Twin ebulliometer): 5.333 ± 0.008 kPa | vapor or sublimation pressure (456.04 K, Liquid, Twin ebulliometer): 7.999 ± 0.008 kPa | molar entropy (460 K, Liquid, Small sample (50 mg) DSC): 336.12 ± 7.8 J/K/mol | vapor or sublimation pressure (464.4 K, Liquid, Twin ebulliometer): 10.67 ± 0.008 kPa | vapor or sublimation pressure (471.16 K, Liquid, Twin ebulliometer): 13.33 ± 0.008 kPa | vapor or sublimation pressure (478.17 K, Liquid, Twin ebulliometer): 16.66 ± 0.009 kPa | molar entropy (480 K, Liquid, Small sample (50 mg) DSC): 348.73 ± 8.1 J/K/mol | vapor or sublimation pressure (483.99 K, Liquid, Twin ebulliometer): 19.93 ± 0.009 kPa | vapor or sublimation pressure (491.65 K, Liquid, Twin ebulliometer): 25.02 ± 0.009 kPa and 25.02 ± 0.01 kPa | vapor or sublimation pressure (499.35 K, Liquid, Twin ebulliometer): 31.18 ± 0.011 kPa | molar entropy (500 K, Liquid, Small sample (50 mg) DSC): 361.11 ± 8.4 J/K/mol | vapor or sublimation pressure (507.08 K, Liquid, Twin ebulliometer): 38.56 ± 0.012 kPa | vapor or sublimation pressure (514.86 K, Liquid, Twin ebulliometer): 47.38 ± 0.014 kPa | molar entropy (520 K, Liquid, Small sample (50 mg) DSC): 373.29 ± 8.7 J/K/mol | vapor or sublimation pressure (522.68 K, Liquid, Twin ebulliometer): 57.82 ± 0.016 kPa | vapor or sublimation pressure (530.55 K, Liquid, Twin ebulliometer): 70.12 ± 0.018 kPa | vapor or sublimation pressure (538.45 K, Liquid, Twin ebulliometer): 84.53 ± 0.02 kPa | molar entropy (540 K, Liquid, Small sample (50 mg) DSC): 385.27 ± 9 J/K/mol | vapor or sublimation pressure (546.4 K, Liquid, Twin ebulliometer): 101.33 ± 0.023 kPa | vapor or sublimation pressure (554.39 K, Liquid, Twin ebulliometer): 120.79 ± 0.03 kPa | molar entropy (560 K, Liquid, Small sample (50 mg) DSC): 397.05 ± 9.2 J/K/mol | vapor or sublimation pressure (562.43 K, Liquid, Twin ebulliometer): 143.25 ± 0.03 kPa | vapor or sublimation pressure (570.5 K, Liquid, Twin ebulliometer): 169.02 ± 0.04 kPa | vapor or sublimation pressure (578.62 K, Liquid, Twin ebulliometer): 198.49 ± 0.04 kPa | molar entropy (580 K, Liquid, Small sample (50 mg) DSC): 408.64 ± 9.5 J/K/mol | vapor or sublimation pressure (586.77 K, Liquid, Twin ebulliometer): 232.02 ± 0.04 kPa | vapor or sublimation pressure (594.97 K, Liquid, Twin ebulliometer): 270.02 ± 0.05 kPa | molar entropy (600 K, Liquid, Small sample (50 mg) DSC): 420.05 ± 9.8 J/K/mol | molar entropy (620 K, Liquid, Small sample (50 mg) DSC): 431.28 ± 10 J/K/mol | molar entropy (640 K, Liquid, Small sample (50 mg) DSC): 442.34 ± 10 J/K/mol | molar entropy (660 K, Liquid, Small sample (50 mg) DSC): 453.23 ± 11 J/K/mol | molar entropy (680 K, Liquid, Small sample (50 mg) DSC): 463.97 ± 11 J/K/mol | molar entropy (700 K, Liquid, Small sample (50 mg) DSC): 474.57 ± 11 J/K/mol | mass density (788.8 K, Gas, DSC): 176.5 ± 8.9 kg/m3 | mass density (795.1 K, Liquid, DSC): 470.4 ± 24 kg/m3 | mass density (800.7 K, Liquid, DSC): 433.9 ± 22 kg/m3 | mass density (802.9 K, Liquid, DSC): 399.3 ± 20 kg/m3 | mass density (803 K, Gas, DSC): 183.3 ± 12 kg/m3 | mass density (803.6 K, Liquid, DSC): 360.9 ± 18 kg/m3 | mass density (807 K, Gas, DSC): 238.4 ± 14 kg/m3 | mass density (809.2 K, Gas, DSC): 264.7 ± 29 kg/m3 | mass density (809.6 K, Gas, DSC): 268.7 ± 29 kg/m3 and 299.5 ± 38 kg/m3 | Triple point temperature (Crystal, Adiabatic calorimetry): 331.97 ± 0.039 K
